Laboratory results published in patent US20040167229A1, “Method of lowering CRP and reducing systemic inflammation” (priority 2002, published 2004).
Marks after values point to notes of the source that are not given here.

Tests used:
[1] = system: proinflammatory cytokine induced CRP production by human hepatoma cell line PLC/PRF/5; test: CRP production by cytokine stimulated human hepatoma PLC/PRF/5 cells, CRP ELISA of cell media (Example 16); assay type: cell-based; settings: 10 ng/ml IL-6, 1 ng/ml IL-1, 1 μM dexamethasone, 24 hours, FIG. 1
Description: As noted above dialkyl ethers are useful for inhibiting proinflammatory cytokine induced CRP production. Studies have shown that the acute phase response can be recapitulated in cultured human hepatoma cells stimulated with the pro-inflammatory cytokines IL-6 and IL-1 in the presence of the corticosteroid Dexamethasone (Lozanski G, Berthier F, and Kushner I, 1997; Biochem J. 328:271-275). Using a similar hepatoma cell system we evaluated the effect 6,6′-oxybis(2,2-dimethylhexanoic acid) on CRP production by cytokine stimulated human hepatoma PLC/PRF/5 cells. […]
CRP protein concentrations were determined using a CRP ELISA Kit (Alpha Diagnostic International, Inc. San Antonio, Tex. USA (Cat. No.1000)). […] At the end of this incubation a 50 μl stop solution (as described by the manufacturer of the CRP kit) was added to each well and the plate was used to measure absorbance at 450 nm in a Spectra Max Plus, Molecular Devices spectrophotometer.
A CRP standard curve (in ng/ml) was generated by determining 450 nm absorbance values for different amounts of a standard CRP solution, provided by the vendor of the CRP kit, and correcting these values by subtracting the 450 nm absorbance of zero CRP control samples. CRP determinations in experimental samples was done as follows: 10 μl cell media samples in duplicates or triplicates were used to determine 450 nm absorbance. […]

[2] = system: CRP; test: Randomized, double-blind, placebo-controlled dose-response study in hypercholesterolemic patients, 8-week treatment; CRP by high sensitivity assay (Example 17); assay type: in vivo, human; settings: mean of 6 and 8 week CRP level, placebo 9.4% increase
Method: A randomized, double-blind, placebo-controlled, parallel group, dose-response, multicenter study was conducted in hypercholesterolemic patients. The study had three periods: (1) a lipid medication wash-out visit if needed; (2) a qualifying period; and (3) an 8-week double-blind treatment period. The data discussed below is from a portion of a larger study.
Patients with significant cardiac, renal (creatinine>2.0 mg/dL) or liver (alanine aminotransferase [ALT] or aspartate aminotransferase [AST]>1.5× upper limit of normal [ULN]) disease, unexplained CPK levels>3×ULN, body mass index [BMI]>38 kg/m^2, triglycerides [TG]>400 mg/dL, or age>70 years are excluded as are women who are of childbearing potential, pregnant or lactating. A subset of eligible patients was randomized to receive placebo, 300, 600 or 900 mg/day of 6,6′-oxybis(2,2-dimethylhexanoic acid) calcium salt. Each of these groups had 13 to 15 patients.
Blood samples were collected at week −2, week −1, randomization and every two weeks thereafter. CRP levels were determined using a high sensitivity assay as in example 15. The mean of the 6 and the 8 week CRP level was calculated for each patient. Values>10 were not included in the analysis as these values are indicative of acute inflammation. For each dosage group the median of the mean values was determined. These median numbers were compared with median CRP values at baseline. Percent change from baseline in CRP levels due to the administration of 300, 600, 900 mg/day of 6,6′-oxybis(2,2-dimethylhexanoic acid) calcium salt or placebo is shown in FIG. 2. At the 300, 600 and 900 mg doses the levels of CRP were reduced by 26% (p=0.16 vs placebo), 42% (p<0.01 vs placebo) and 35% (p<0.01 vs placebo) respectively, compared to a 9.4% increase in the placebo group.

[3] = system: CRP; test: Randomized, double-blind, placebo-controlled dose-response study in patients with HDL-C <35 mg/dL, 12 weeks; CRP by high sensitivity immunonephelometry (Example 15); assay type: in vivo, human; settings: for levels of CRP reduced by: 900 mg/day; for % change in CRP levels from base line: median percent change
Method: As noted above, the dialkyl ethers of this invention are useful for lowering plasma CRP levels. The ability of a dialkylether to lower plasma CRP levels was determined using in vivo studies routinely utilized by those skilled in the art.
A randomized, double-blind, placebo-controlled, parallel group, dose-response, multicenter study was conducted at 11 centers in the United States and one center in Canada. Eligible patients with HDL-C level<35 mg/dL (0.9 mmol/L) were selected following a 6-week, single-blind placebo, dietary lead in period conducted according to National Cholesterol Education Program (NCEP) Step 1 Diet. The NCEP Step 1 Diet guidelines are as follows:
Eligible patients with HDL-C level<35 mg/dL (0.9 mmol/L) were stratified according to whether mean serum TG level measured at both 2 and 4 weeks prior to randomization was <200 mg/dL (2.3 mmol/L) or ≧200 mg/dL (2.3 mmol/L). Within each TG stratum, patients were randomized to receive either 150, 300, 600, or 900 mg of 6,6′-oxybis(2,2-dimethylhexanoic acid) calcium saltor placebo daily (QD) for 12 weeks.
Eligible patients were women of non-childbearing potential (naturally postmenopausal or surgically sterilized) or men 18 to 80 years of age with a baseline HDL-C<35 mg/dL. Patients were excluded if they had creatine phosphokinase (CPK)>3 times the upper limit of normal (ULN), a body mass index>35 kg/m^2, uncontrolled hypertension defined as sitting diastolic blood pressure>95 mm Hg whether taking or not taking an acceptable antihypertensive medication, uncontrolled diabetes mellitus (HbA1C>10%), hepatic dysfunction including asparate aminotransferase (AST) or alanine aminotransferase (ALT)>2 times ULN, renal dysfunction as defined by blood urea nitrogen (BUN) or creatinine>2 times ULN or uncontrolled hypothyroidism (thyroid stimulating hormone>1.5 times ULN). Also excluded were those with a history of gall bladder disease or pancreatitis, a history of consuming>14 alcoholic drinks per week, or those with a known hypersensitivity to lipid-altering drugs. Patients who had myocardial infarction, severe or unstable angina pectoris, coronary artery bypass graft or any other cardiovascular event requiring hospitalization within the last 3 months were also excluded from the study. Patients were not permitted any other lipid-altering drugs during the course of the study and if on prestudy lipid-altering drug therapy, were required to undergo an additional 4-week washout period. Use of isotretinoin, insulin, warfarin, immunosuppressive agents and intermittent systemic steroids were also prohibited.
All blood samples were collected following a 12-hour fast and analyzed using methods well known to one of skill in the art; these methods are described briefly as follows. Serum concentrations of cholesterol and triglycerides were measured using an enzymatic, colorimetric assay on a Hitachi 747 analyzer. The HDL-C samples were obtained from the supernatant after precipitation of the non-HDL lipoproteins using heparin and manganese chloride. Concentrations of CRP were measured using immunonephelometry on a nephelometer (Dade Behring, Marburg, Germany). The high sensitivity assay was used to measure CRP (Dade Behring, Marburg, Germany).
Within each TG stratum, an ANCOVA model with the effects of baseline CRP value, treatment, and site was used to analyze the percent change from baseline at the last visit for CRP by producing least squares (LS) means and p-values. p-values were unadjusted for multiplicity.
The Shapiro-Wilk Test for Normality and visual analysis of the residuals was used to determine if the assumption of normality was reasonable. Since CRP levels in all patients were not normally distributed, median percent changes are presented and Conover's nonparametric ANCOVA was used to analyze the ranked data.

Row | SMILES | doses that effectively inhibited proinflammatory cytokine induced CRP production [1] [µM] | levels of CRP reduced by (median percent change from baseline) ([2]; 300 mg/day, p=0.16 vs placebo) [%] | levels of CRP reduced by (median percent change from baseline) ([2]; 600 mg/day, p<0.01 vs placebo) [%] | levels of CRP reduced by (median percent change from baseline) ([2]; 900 mg/day, p<0.01 vs placebo) [%] | reduction in the CRP level ([3]; 600 mg/day, <200 mg/dL TG stratum, not statistically significant) [%] | CRP level reduced by ([3]; 600 mg/day, ≧200 mg/dL TG stratum, p<0.05 vs Placebo) [%] | levels of CRP reduced by ([3]; <200 mg/dL TG stratum, p<0.05 vs Placebo) [%] | levels of CRP reduced by ([3]; ≧200 mg/dL TG stratum, p<0.001 vs placebo) [%] | % change in CRP levels from base line ([3]; patients TG < 200 mg/dL, 150 mg daily (QD) for 12 weeks) [%] | % change in CRP levels from base line ([3]; patients TG < 200 mg/dL, 300 mg daily (QD) for 12 weeks) [%] | % change in CRP levels from base line ([3]; patients TG < 200 mg/dL, 600 mg daily (QD) for 12 weeks, not statistically significant) [%] | % change in CRP levels from base line ([3]; patients TG < 200 mg/dL, 900 mg daily (QD) for 12 weeks, p < 0.05 versus placebo) | % change in CRP levels from base line ([3]; patients TG ≧ 200 mg/dL, 150 mg daily (QD) for 12 weeks) [%] | % change in CRP levels from base line ([3]; patients TG ≧ 200 mg/dL, 300 mg daily (QD) for 12 weeks) [%] | % change in CRP levels from base line ([3]; patients TG ≧ 200 mg/dL, 600 mg daily (QD) for 12 weeks, p < 0.05 versus placebo) | % change in CRP levels from base line ([3]; patients TG ≧ 200 mg/dL, 900 mg daily (QD) for 12 weeks, p < 0.001 versus placebo)
1 | CC(C)(CCCCOCCCCC(C)(C)C(=O)O)C(=O)O [6,6′-oxybis(2,2-dimethylhexanoic acid), 6,6′-Oxybis-(2,2-dimethylhexanoic acid)] | ≥ 500 | – | – | – | – | – | – | – | – | – | – | – | – | – | – | –
2 | CC(C)(CCCCOCCCCC(C)(C)C(=O)[O-])C(=O)[O-].[Ca+2] [6,6′-oxybis(2,2-dimethylhexanoic acid), calcium salt] | – | 26 | 42 | 35 | 58 | 29 | 54 | 57 | −14.3 | −16.0 | −58.3 | −53.8* % | −22.2 | −16.2 | −28.6* % | −57.1** %
